pEC50, pIC50: −log10 of the molar value.
Assays:
[1] = test system: MV4-11 cell line; experiment: Antiproliferative activity (ATPLite cell viability), MV4-11; assay type: cell-based; details: Homo sapiens, MV4-11 (acute myeloid leukemia, FLT3-ITD), 72 h incubation, read-out: Cytotoxicity (EC50) on MV411 cell line
Method: (§1) The characteristics of the cell lines used are as follows (Table 2):
(§2) MV4-11 and MOLM-13 cell lines are cultured in the culture medium specified in Table 2 above and according to the supplier's recommendations. The tests are carried out in 96-well plates. The cells are divided in two at D0. At D1, they are seeded and treated with the compounds at various concentrations and incubated for 72 h at 37° C. and 5% CO2. The dilution of the compounds from stock solutions in DMSO (Sigma, #D8418) was made semi-logarithmically for a final concentration in the culture medium of 0.1%. At day 4, cell viability is evaluated by assaying the ATP released by the living cells using the ATPLite® kit (Perkin Elmer, #6016947). The EC50 values (concentration of the compound necessary to obtain 50% of the maximum effect) are calculated using curve-fitting software.

[2] = biological target: T1, FLT3 (Homo sapiens, UniProt P36888); experiment: LanthaScreen TR-FRET binding test, FLT3; details: recombinant FLT3 15 nM, kinase tracer 236 3 nM, 25° C., 1 hour; read-out: Inhibition (IC50) of FLT3 enzyme
T1 construct: purchased Life Technologies PV3182
T1 sequence (P36888 564-993 limits assumed): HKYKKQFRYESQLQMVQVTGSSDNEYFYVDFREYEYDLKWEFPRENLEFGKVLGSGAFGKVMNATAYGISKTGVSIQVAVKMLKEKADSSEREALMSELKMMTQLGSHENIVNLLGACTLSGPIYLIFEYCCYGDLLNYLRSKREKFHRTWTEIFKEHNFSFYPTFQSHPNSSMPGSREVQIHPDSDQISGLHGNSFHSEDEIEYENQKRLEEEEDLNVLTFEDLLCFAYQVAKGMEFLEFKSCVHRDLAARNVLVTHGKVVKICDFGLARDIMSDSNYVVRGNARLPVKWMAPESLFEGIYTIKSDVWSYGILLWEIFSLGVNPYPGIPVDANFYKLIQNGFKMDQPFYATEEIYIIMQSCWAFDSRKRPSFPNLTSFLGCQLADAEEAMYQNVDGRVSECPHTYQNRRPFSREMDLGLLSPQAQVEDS
Method: (§3) FLT3 (#PV3182), JAK2 (#PV4210) and JAK3 (#PV3855) recombinant enzymes were purchased from Life Technologies. FLT3-ITD (#0778-0000-1) and FLT3^D835Y (#14-610) proteins were purchased from ProQinase and Merck Millipore, respectively. All the tests were carried out in 384-well plates. The principle of these binding tests is based on the LanthaScreen® TR-FRET methodology from Life Technologies.
The reaction mixture (15 μL total volume) contains the following compounds: 15 nM FLT3, FLT3-ITD or FLT3^D835Y, 3 nM kinase tracer 236 (Life Technologies, #PV5592) and 6 nM LanthaScreen® anti-GST antibody coupled to a europium chelate (Life Technologies, #PV5594) for FLT3-ITD and FLT3^D835Y or 6 nM LanthaScreen® anti-His antibody coupled to a europium chelate (Life Technologies, #PV5596) for FLT3.
(§4) The compounds are evaluated at 8 different concentrations prepared by making dilutions from a starting 10 mM stock solution in dimethylsulfoxide (DMSO) (Sigma, #D8418). The final DMSO concentration in the test is 1%. The reaction is carried out at 25° C. for 1 hour and detected on the EnVision® reader (Perkin Elmer) according to the recommendations of the supplier, Life Technologies.
(§5) The results are presented (Table 1) as the concentration values of the compound at which 50% of the kinase activity is inhibited, IC50 (μM), generated using the PRISM software (GraphPad).

[3] = biological target: T2, JAK2 (Homo sapiens, UniProt O60674); experiment: LanthaScreen TR-FRET binding test, JAK2; details: recombinant JAK2 15 nM, kinase tracer 236 150 nM, 25° C., 1 hour; read-out: Inhibition (IC50) of JAK2 enzyme
T2 construct: purchased Life Technologies PV4210
T2 sequence (O60674 whole entry): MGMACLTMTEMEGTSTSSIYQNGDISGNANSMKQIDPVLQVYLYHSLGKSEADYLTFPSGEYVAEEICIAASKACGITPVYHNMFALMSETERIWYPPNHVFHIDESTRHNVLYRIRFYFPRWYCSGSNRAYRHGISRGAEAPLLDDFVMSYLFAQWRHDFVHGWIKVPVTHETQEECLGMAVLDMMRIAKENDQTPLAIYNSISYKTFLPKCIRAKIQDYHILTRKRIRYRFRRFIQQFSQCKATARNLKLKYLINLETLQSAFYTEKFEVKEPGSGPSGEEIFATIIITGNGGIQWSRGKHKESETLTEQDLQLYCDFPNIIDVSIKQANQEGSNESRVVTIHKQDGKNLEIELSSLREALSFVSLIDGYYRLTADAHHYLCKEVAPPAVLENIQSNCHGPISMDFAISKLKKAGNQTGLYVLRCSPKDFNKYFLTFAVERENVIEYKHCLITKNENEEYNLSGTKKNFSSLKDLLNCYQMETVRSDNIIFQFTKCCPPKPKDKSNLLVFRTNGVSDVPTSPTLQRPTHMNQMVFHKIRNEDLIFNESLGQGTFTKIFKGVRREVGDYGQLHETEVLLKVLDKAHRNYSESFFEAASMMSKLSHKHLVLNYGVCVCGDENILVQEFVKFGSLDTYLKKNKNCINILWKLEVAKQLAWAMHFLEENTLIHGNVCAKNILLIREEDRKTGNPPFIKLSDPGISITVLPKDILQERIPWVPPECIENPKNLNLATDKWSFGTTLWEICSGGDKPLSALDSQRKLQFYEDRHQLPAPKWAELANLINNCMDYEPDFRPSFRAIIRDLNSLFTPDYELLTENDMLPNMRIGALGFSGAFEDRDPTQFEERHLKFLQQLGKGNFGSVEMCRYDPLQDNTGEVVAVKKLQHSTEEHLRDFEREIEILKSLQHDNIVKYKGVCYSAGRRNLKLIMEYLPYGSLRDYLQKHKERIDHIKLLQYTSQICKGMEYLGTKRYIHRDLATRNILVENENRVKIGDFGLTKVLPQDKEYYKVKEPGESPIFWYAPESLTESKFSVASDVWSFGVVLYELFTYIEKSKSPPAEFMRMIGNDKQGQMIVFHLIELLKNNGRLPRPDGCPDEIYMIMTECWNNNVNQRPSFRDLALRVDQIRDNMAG
Method: as §3
The reaction mixture (15 μL total volume) contains the following compounds: 15 nM JAK2 or JAK3, 150 nM kinase tracer 236 (Life Technologies, #PV5592) for JAK2 or 3 nM for JAK3 and 6 nM LanthaScreen® anti-GST antibody coupled to a europium chelate (Life Technologies, #PV5594) for both enzymes.
as §4, §5

[4] = test system: MOLM-13 cell line; experiment: Antiproliferative activity (ATPLite cell viability), MOLM-13; assay type: cell-based; details: Homo sapiens, MOLM-13 (acute myeloid leukemia, FLT3-ITD), 72 h incubation, read-out: Cytotoxicity (EC50) on MOLM13 cell line
Method: as §1, §2

Structure (SMILES)	pEC50 [1]	pIC50 [2]	pIC50 [3]	pEC50 [4]
CN1CC=C(c2ccc3cc2OCCOCCOc2ccc4c(c2)-c2nc(ncc2CC4)N3)CC1 [Compound 23]	7.70	8.35	6.89	8.18
c1cc(N2C[C@H]3C[C@@H]2CN3)c2cc1Nc1ncc3c(n1)-c1cc(ccc1CC3)OCCOCCO2 [Compound 44]	8.00	8.28	7.47	8.06
c1cc(OCCN2CCCC2)c2cc1Nc1ncc3c(n1)-c1cc(ccc1CC3)OCCOCCO2 [Compound 14]	8.04	8.15	7.47	8.35
c1cc(N2CC3CNCC3C2)c2cc1Nc1ncc3c(n1)-c1cc(ccc1CC3)OCCOCCO2 (stereo not drawn) [Compound 29]	8.12	8.43	7.94	7.82
OC1CCN(c2ccc3cc2OCCOCCOc2ccc4c(c2)-c2nc(ncc2CC4)N3)CC1 [Compound 19]	7.92	8.44	7.70	7.87
c1cc(N2CC3CCC(C2)N3)c2cc1Nc1ncc3c(n1)-c1cc(ccc1CC3)OCCOCCO2 [Compound 42]	8.52	8.49	8.17	8.15
CN1CCN(c2ccc3cc2OCCOCCOc2ccc4c(c2)-c2nc(ncc2CC4)N3)CC1(C)C [Compound 40]	7.68	8.72	8.14	7.70
c1cc(N2CCNCC2)c2cc1Nc1ncc3c(n1)-c1cc(ccc1CC3)OCCOCCO2 [Compound 5]	8.14	8.36	7.89	8.74
CN1CCN(c2ccc3cc2OCCOCCOc2ccc4c(c2)-c2nc(ncc2CC4)N3)CC1 [Compound 3]	8.55	8.60	7.76	8.25
CN(C)C1CCN(c2ccc3cc2OCCOCCOc2ccc4c(c2)-c2nc(ncc2CC4)N3)C1 (stereo not drawn) [Compound 30]	7.92	8.49	8.00	7.82
c1cc(N2CCC(N3CCOCC3)C2)c2cc1Nc1ncc3c(n1)-c1cc(ccc1CC3)OCCOCCO2 (stereo not drawn) [Compound 7]	7.40	7.74	7.40	7.47
c1cc(N2CCC(N3CCCCC3)CC2)c2cc1Nc1ncc3c(n1)-c1cc(ccc1CC3)OCCOCCO2 [Compound 10]	8.19	8.22	8.11	8.22
